Reference: patent US9896435B2, “N-pyrrolidinyl,N′-pyrazolyl-urea, thiourea, guanidine and cyanoguanidine compounds as TrkA kinase inhibitors” (Array BioPharma Inc., priority 2012, dated 2018)

What was measured:
Assay in all cases: KinaseProfiler off-target kinase profiling
Format in all cases: biochemical
Conditions in all cases: 10 μM, ATP near Km
PRK2 = PRK2 (Homo sapiens (Human), UniProt Q16513)
Protocol: (§1) Two representative compounds (Example 2, 14) of the invention were tested for off-target kinase activity at a concentration of 10 μM by Millipore, Inc. in their KinaseProfiler™ service against all the kinases available in their full kinase panel. These compounds were run in duplicate at a concentration of ATP near the Km for each individual kinase according to Millipore's specifications. The results are shown in Table B. Data are reported as percent of control (POC) and are the average of the two replicates.

TrkA = TrkA (Homo sapiens (Human), UniProt P04629)
Protocol: as §1

TBK1 = TBK1 (Homo sapiens (Human), UniProt Q9UHD2)
Protocol: as §1

CK1gamma3 = CK1gamma3 (Homo sapiens (Human), UniProt Q9Y6M4)
Protocol: as §1

Fer = Fer (Homo sapiens (Human), UniProt P16591)
Protocol: as §1

Hck = Hck (Homo sapiens (Human), UniProt P08631)
Protocol: as §1

EphB3 = EphB3 (Homo sapiens (Human), UniProt P54753)
Sequence of EphB3 (P54753 34-998): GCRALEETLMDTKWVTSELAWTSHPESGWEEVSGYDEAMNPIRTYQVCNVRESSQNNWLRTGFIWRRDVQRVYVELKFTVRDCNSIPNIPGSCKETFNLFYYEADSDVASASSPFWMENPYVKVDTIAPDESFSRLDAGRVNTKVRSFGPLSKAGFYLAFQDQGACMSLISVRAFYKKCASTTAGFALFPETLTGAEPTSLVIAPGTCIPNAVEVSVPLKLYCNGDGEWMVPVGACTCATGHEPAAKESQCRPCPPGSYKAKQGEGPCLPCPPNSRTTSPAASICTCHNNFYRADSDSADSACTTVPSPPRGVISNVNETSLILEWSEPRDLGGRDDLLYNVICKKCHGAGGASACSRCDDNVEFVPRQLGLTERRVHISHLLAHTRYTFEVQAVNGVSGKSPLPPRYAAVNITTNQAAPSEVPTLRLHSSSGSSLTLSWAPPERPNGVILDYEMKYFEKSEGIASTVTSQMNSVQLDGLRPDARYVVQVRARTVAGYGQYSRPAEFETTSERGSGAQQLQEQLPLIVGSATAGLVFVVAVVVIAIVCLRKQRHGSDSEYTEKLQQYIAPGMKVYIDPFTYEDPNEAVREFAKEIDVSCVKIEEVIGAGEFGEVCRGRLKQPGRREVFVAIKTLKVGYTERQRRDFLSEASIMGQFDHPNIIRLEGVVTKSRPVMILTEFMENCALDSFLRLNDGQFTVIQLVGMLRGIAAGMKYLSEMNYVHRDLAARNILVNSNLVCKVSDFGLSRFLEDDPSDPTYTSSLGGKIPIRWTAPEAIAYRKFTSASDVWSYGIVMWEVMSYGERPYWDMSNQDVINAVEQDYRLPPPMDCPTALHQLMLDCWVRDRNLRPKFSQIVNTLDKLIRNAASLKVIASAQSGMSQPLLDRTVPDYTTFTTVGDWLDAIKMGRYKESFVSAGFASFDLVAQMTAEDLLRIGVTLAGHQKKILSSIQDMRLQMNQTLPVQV
Protocol: as §1

EphA4 = EphA4 (Homo sapiens (Human), UniProt P54764)
Protocol: as §1

Met = Met (Homo sapiens (Human), UniProt P08581)
Protocol: as §1

CDK3/cyclinE = CDK3/cyclinE (Homo sapiens (Human), UniProt Q00526)
Protocol: as §1

PKCeta = PKCeta (Homo sapiens (Human), UniProt P24723)
Protocol: as §1

IKKbeta = IKKbeta (Homo sapiens (Human), UniProt O14920)
Protocol: as §1

MAPKAP-K3 = MAPKAP-K3 (Homo sapiens (Human), UniProt Q16644)
Sequence of MAPKAP-K3 (Q16644 whole entry): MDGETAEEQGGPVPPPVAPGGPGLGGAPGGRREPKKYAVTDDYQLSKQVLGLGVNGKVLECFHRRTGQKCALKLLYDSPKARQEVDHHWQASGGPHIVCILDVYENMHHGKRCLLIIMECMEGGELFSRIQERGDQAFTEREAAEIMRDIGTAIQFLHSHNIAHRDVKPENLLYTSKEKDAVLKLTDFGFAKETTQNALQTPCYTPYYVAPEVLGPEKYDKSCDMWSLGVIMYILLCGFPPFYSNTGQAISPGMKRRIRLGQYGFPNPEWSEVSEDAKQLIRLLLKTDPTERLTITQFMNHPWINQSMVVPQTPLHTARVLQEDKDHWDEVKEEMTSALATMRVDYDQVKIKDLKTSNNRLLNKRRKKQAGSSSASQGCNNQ
Protocol: as §1

PASK = PASK (Homo sapiens (Human), UniProt Q96RG2)
Protocol: as §1

PKCiota = PKCiota (Homo sapiens (Human), UniProt P41743)
Protocol: as §1

NEK11 = NEK11 (Homo sapiens (Human), UniProt Q8NG66)
Protocol: as §1

AKT2 = AKT2 (Homo sapiens (Human), UniProt P31751)
Protocol: as §1

ARK5 = ARK5 (Homo sapiens (Human), UniProt O60285)
Protocol: as §1

JNK1alpha1 = JNK1alpha1 (Homo sapiens (Human), UniProt P45983)
Protocol: as §1

EphA5 = EphA5 (Homo sapiens (Human), UniProt P54756)
Protocol: as §1

ULK2 = ULK2 (Homo sapiens (Human), UniProt Q8IYT8)
Protocol: as §1

NEK2 = NEK2 (Homo sapiens (Human), UniProt P51955)
Protocol: as §1

Flt1 = Flt1 (Homo sapiens (Human), UniProt P17948)
Sequence of Flt1 (P17948 27-1338): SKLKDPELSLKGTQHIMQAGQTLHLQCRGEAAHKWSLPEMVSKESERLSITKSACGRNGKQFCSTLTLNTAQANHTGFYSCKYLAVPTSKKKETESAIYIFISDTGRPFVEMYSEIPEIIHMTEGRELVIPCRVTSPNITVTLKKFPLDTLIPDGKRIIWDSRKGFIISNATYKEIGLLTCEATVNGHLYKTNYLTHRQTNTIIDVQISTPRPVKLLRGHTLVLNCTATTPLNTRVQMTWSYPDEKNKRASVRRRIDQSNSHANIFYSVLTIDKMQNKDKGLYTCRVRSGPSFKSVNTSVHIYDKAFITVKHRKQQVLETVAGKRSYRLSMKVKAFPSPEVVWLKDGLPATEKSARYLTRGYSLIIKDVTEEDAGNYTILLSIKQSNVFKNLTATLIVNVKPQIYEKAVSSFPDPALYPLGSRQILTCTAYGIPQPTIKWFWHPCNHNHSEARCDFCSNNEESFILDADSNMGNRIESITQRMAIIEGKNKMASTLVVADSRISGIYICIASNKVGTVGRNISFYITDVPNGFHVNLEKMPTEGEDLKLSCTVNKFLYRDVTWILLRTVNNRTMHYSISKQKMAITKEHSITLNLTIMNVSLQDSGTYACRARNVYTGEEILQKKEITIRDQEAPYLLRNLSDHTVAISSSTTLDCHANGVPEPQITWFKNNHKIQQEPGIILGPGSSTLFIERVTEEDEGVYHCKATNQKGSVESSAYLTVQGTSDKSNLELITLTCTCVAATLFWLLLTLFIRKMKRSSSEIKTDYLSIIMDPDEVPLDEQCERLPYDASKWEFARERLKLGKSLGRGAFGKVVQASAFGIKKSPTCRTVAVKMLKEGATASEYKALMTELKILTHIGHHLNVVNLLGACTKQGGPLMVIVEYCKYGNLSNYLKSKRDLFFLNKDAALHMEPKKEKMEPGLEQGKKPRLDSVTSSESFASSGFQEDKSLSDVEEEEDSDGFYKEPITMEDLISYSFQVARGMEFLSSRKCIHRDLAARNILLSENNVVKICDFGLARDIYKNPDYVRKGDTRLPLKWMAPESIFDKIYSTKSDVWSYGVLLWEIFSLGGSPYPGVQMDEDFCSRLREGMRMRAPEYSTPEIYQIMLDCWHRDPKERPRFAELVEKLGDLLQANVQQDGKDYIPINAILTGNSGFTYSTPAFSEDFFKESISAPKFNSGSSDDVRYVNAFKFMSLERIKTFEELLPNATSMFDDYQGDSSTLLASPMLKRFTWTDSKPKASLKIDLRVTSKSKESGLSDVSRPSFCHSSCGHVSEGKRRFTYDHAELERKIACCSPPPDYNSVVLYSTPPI
Protocol: as §1

MRCKbeta = MRCKbeta (Homo sapiens (Human), UniProt Q9Y5S2)
Protocol: as §1

CDK7/cyclinH/MAT1 = CDK7/cyclinH/MAT1 (Homo sapiens (Human), UniProt P50613)
Protocol: as §1

Ros = Ros (Homo sapiens (Human), UniProt P08922)
Protocol: as §1

Pim-3 = Pim-3 (Homo sapiens (Human), UniProt Q86V86)
Protocol: as §1

LKB1 = LKB1 (Homo sapiens (Human), UniProt Q15831)
Protocol: as §1

Tie2 = Tie2 (Homo sapiens (Human), UniProt Q02763)
Protocol: as §1

DAPK2 = DAPK2 (Homo sapiens (Human), UniProt Q9UIK4)
Protocol: as §1

CK1delta = CK1delta (Homo sapiens (Human), UniProt P48730)
Protocol: as §1

NEK7 = NEK7 (Homo sapiens (Human), UniProt Q8TDX7)
Protocol: as §1

EphA7 = EphA7 (Homo sapiens (Human), UniProt Q15375)
Protocol: as §1

ZAP-70 = ZAP-70 (Homo sapiens (Human), UniProt P43403)
Protocol: as §1

p38beta = p38beta (Homo sapiens (Human), UniProt Q15759)
Sequence of p38beta (Q15759 whole entry): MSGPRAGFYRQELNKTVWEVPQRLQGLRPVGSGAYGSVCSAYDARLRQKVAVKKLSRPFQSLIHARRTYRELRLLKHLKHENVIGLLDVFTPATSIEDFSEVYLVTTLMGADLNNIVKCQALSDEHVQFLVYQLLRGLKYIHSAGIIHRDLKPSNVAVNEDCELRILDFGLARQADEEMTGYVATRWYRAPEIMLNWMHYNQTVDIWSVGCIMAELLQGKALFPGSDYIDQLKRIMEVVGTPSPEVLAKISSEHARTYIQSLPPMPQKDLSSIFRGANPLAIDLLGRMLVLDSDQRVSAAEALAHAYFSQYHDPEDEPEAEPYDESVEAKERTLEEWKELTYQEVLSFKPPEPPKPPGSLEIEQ
Protocol: as §1

KIT = KIT (Homo sapiens (Human), UniProt P10721)
Protocol: as §1

PTK6 = PTK6 (Homo sapiens (Human), UniProt Q13882)
Sequence of PTK6 (Q13882 whole entry): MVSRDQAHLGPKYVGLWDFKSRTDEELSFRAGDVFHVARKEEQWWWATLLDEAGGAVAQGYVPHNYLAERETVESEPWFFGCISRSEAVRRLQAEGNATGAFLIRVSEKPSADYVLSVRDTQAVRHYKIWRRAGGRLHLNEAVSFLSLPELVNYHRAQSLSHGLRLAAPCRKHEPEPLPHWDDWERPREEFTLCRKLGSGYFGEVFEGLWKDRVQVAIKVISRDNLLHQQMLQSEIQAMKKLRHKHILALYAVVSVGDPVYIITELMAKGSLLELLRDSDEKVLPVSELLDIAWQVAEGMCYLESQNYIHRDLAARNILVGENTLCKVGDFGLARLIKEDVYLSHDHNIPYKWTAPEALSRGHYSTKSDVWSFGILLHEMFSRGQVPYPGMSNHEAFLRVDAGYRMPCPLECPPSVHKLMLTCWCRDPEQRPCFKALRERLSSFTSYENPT
Protocol: as §1

CK1gamma1 = CK1gamma1 (Homo sapiens (Human), UniProt Q9HCP0)
Protocol: as §1

CHK2 = CHK2 (Homo sapiens (Human), UniProt O96017)
Protocol: as §1

MST3 = MST3 (Homo sapiens (Human), UniProt Q9Y6E0)
Sequence of MST3 (Q9Y6E0 whole entry): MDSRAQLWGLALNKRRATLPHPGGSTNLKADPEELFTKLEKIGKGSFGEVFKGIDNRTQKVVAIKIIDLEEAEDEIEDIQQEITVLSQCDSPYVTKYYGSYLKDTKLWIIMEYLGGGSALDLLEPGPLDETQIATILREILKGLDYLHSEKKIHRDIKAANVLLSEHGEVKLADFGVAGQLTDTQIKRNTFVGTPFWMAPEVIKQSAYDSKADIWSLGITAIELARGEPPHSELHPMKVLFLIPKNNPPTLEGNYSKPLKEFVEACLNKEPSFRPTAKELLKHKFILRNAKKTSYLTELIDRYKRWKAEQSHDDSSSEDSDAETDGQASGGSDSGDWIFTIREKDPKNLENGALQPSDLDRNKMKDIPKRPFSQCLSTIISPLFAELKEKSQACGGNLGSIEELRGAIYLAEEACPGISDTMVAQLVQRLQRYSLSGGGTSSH
Protocol: as §1

Sequence of PRK2 (Q16513 whole entry): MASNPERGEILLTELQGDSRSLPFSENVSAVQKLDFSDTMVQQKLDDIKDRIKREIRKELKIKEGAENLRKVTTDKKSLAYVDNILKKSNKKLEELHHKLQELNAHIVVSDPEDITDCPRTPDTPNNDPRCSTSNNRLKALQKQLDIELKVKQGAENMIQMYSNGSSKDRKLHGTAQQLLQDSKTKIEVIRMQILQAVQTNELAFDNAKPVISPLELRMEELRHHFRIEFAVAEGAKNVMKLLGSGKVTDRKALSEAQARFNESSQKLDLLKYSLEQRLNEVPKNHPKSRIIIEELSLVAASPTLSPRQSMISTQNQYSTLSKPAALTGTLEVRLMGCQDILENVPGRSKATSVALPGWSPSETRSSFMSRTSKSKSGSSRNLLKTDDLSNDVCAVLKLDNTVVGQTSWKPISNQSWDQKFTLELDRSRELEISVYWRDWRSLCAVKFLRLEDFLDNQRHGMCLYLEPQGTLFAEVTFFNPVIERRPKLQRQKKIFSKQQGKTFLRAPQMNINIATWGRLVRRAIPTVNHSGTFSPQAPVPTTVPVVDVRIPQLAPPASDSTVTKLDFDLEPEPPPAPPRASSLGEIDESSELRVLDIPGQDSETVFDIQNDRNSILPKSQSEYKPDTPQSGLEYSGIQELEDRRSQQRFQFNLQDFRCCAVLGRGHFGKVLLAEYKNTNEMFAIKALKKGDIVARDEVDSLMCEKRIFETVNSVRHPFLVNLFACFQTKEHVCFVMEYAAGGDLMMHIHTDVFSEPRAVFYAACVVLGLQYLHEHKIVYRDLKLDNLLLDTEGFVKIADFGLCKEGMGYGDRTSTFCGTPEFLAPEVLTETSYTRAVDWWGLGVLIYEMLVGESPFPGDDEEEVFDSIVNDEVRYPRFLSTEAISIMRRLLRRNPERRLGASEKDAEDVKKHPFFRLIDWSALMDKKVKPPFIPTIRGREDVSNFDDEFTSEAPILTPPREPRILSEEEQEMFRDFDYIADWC

Avg POC (PRK2) [POC] | Avg POC (TrkA) [POC] | Avg POC (TBK1) [POC] | Avg POC (CK1gamma3) [POC] | Avg POC (Fer) [POC] | Avg POC (Hck) [POC] | Avg POC (EphB3) [POC] | Avg POC (EphA4) [POC] | Avg POC (Met) [POC] | Avg POC (CDK3/cyclinE) [POC] | Avg POC (PKCeta) [POC] | Avg POC (IKKbeta) [POC] | Avg POC (MAPKAP-K3) [POC] | Avg POC (PASK) [POC] | Avg POC (PKCiota) [POC] | Avg POC (NEK11) [POC] | Avg POC (AKT2) [POC] | Avg POC (ARK5) [POC] | Avg POC (JNK1alpha1) [POC] | Avg POC (EphA5) [POC] | SMILES | further results
105 | 0.5 | 116.5 | 87.5 | 105 | 116.5 | 105.5 | 108.5 | 106 | 98 | 108.5 | 87 | 101.5 | 102.5 | 95 | 97 | 113 | 89 | 98 | 102.5 | COCCN1C[C@@H](NC(=O)Nc2c(C)c(-c3ccnc(C)c3)nn2-c2ccccc2)[C@H](c2ccc(F)c(F)c2)C1 [Example 2, 1-((3S,4R)-4-(3,4-difluorophenyl)-1-(2-methoxyethyl)pyrrolidin-3-yl)-3-(4-methyl-3-(2-methylpyridin-4-yl)-1-phenyl-1H-pyrazol-5-yl)urea] | Avg POC (ULK2): 96.5 POC; Avg POC (NEK2): 96 POC; Avg POC (Flt1): 86 POC; Avg POC (MRCKbeta): 105 POC; Avg POC (CDK7/cyclinH/MAT1): 88 POC; Avg POC (Ros): 105 POC; Avg POC (Pim-3): 104 POC; Avg POC (LKB1): 89.5 POC; Avg POC (Tie2): 71.5 POC; Avg POC (DAPK2): 109 POC; Avg POC (CK1delta): 108 POC; Avg POC (NEK7): 117 POC; Avg POC (EphA7): 101.5 POC; Avg POC (ZAP-70): 93 POC; Avg POC (p38beta): 101.5 POC; Avg POC (KIT): 101.5 POC; Avg POC (PTK6): 101 POC; Avg POC (CK1gamma1): 92 POC; Avg POC (CHK2): 101 POC; Avg POC (MST3): 101 POC
106.5 | 1 | 103 | 95 | 100.5 | 108.5 | 138.5 | 103.5 | 96.5 | 100.5 | 100 | 99 | 105.5 | 100.5 | 104.5 | 91 | 119.5 | 85 | 105 | 101.5 | COCCN1C[C@@H](NC(=O)Nc2c(C)c(-c3cnc(C)nc3)nn2-c2ccccc2)[C@H](c2cc(F)cc(F)c2)C1 [Example 14, 1-((3S,4R)-4-(3,5-difluorophenyl)-1-(2-methoxyethyl)pyrrolidin-3-yl)-3-(4-methyl-3-(2-methylpyrimidin-5-yl)-1-phenyl-1H-pyrazol-5-yl)urea] | Avg POC (ULK2): 106.5 POC; Avg POC (NEK2): 97.5 POC; Avg POC (Flt1): 81 POC; Avg POC (MRCKbeta): 98.5 POC; Avg POC (CDK7/cyclinH/MAT1): 97.5 POC; Avg POC (Ros): 91 POC; Avg POC (Pim-3): 108.5 POC; Avg POC (LKB1): 103.5 POC; Avg POC (Tie2): 71 POC; Avg POC (DAPK2): 107 POC; Avg POC (CK1delta): 108.5 POC; Avg POC (NEK7): 106.5 POC; Avg POC (EphA7): 106.5 POC; Avg POC (ZAP-70): 101 POC; Avg POC (p38beta): 93 POC; Avg POC (KIT): 101.5 POC; Avg POC (PTK6): 108.5 POC; Avg POC (CK1gamma1): 80 POC; Avg POC (CHK2): 97.5 POC; Avg POC (MST3): 105.5 POC
